# According to ChEMBL document CHEMBL3259563, “The discovery of potent and selective non-steroidal glucocorticoid receptor modulators, suitable for inhalation” (Bioorg Med Chem Lett, 2014):
# Tests used:
# Hepatocyte = assay: Intrinsic clearance in human hepatocytes; format: ADME, cell-based
# Glucocorticoid receptor = target: T1, Glucocorticoid receptor (Rattus norvegicus, UniProt P06536); assay: Agonist activity at glucocorticoid receptor in rat PBMC assessed as inhibition of LPS-stimulated TNF-alpha release
# T1 sequence (P06536 whole entry): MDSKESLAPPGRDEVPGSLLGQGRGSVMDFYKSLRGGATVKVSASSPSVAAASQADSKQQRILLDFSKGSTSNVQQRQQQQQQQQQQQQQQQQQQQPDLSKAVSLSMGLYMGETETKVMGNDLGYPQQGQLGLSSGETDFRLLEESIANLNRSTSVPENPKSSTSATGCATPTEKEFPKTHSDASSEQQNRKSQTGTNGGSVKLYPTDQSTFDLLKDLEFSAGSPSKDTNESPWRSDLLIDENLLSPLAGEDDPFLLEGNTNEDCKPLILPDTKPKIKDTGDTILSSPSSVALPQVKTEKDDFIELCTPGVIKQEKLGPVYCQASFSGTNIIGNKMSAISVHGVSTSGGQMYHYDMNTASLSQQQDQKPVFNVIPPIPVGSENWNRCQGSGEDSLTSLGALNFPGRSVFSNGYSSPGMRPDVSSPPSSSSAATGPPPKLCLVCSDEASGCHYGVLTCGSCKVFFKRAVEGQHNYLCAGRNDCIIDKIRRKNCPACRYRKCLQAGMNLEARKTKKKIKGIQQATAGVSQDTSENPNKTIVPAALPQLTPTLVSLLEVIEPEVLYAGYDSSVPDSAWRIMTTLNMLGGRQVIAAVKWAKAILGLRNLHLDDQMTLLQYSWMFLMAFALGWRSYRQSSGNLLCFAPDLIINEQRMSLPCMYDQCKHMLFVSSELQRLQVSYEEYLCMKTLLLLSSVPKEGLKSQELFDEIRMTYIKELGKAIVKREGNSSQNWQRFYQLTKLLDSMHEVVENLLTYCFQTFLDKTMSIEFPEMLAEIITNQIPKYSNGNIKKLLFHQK
smiles,measurement,setting,value
Cc1nn(C2CCCC2)c(C)c1S(=O)(=O)N[C@@H](C)CNc1cccc2c1cnn2-c1ccc(F)nc1,CLH,Hepatocyte,47 µL/min
same,IC50,Glucocorticoid receptor,4.5 nM
